34 compounds from patent US6268478A, “Intracellular vitamin D binding protein” (Cedars-Sinai Medical Center, priority 1997, dated 2001) can be followed below.

For this test, the target named is IDBP (Saguinus oedipus, UniProt Q9N1U2). As to the kind of experiment: Competitive displacement of [3H]25-OHD3 from IDBP in unfractionated 100,000×g supernatant extracts of B95-8 cells (competitive protein binding assay, dextran-coated charcoal). Details: post-nuclear 100,000xg supernatant of B95-8 marmoset lymphoblasts and partly purified column fractions; species or system Callithrix jacchus (common marmoset). As to conditions: for ability to competitively displace [3H]25-OHD3 binding (FIG. 1A): 100 nM competitor, 2 nM [3H]25-OHD3; for RBI (Relative Binding Index): relative ability of maximally effective concentration to displace [3H]25-OHD3, 25-OHD3 assigned 100, unfractionated 100,000×g supernatant of B95-8 cells; for binding / displacement of [3H]25-OHD3 by vitamin D2 metabolites and synthetic analogues (FIG. 2B): unfractionated B95-8 extracts, 4 nM [3H]25-OHD3; for competition of non-vitamin D steroids and bioactive lipids with 25-OHD3 for binding: crude post-nuclear / 100,000×g supernatant extracts of B95-8 cells. The text has this: Culture and Extraction of B95-8 Cells. The B-lymphoblastoid cell line B95-8 was obtained from the American Type Culture Collection (ATCC, Manassas, Va.). This cell line was established by EBV transformation of blood leukocytes from the vitamin D-resistant new world primate, Callithrix jacchus (common marmoset). The cell line was maintained in RPMI-1640 medium (Irvine Scientific, Irvine, Calif.) routinely supplemented with 10% fetal calf serum (FCS; Gemini BioProducts, Calabasas, Calif.), 100 units/ml penicillin, 100 μg/ml streptomycin, 2 mM L-glutamine (both from Gibco-BRL, Grand Island, N.Y.) in an atmosphere of 95% air-5% CO2.
Confluent cultures were harvested by agitation to dislodge clumps of lymphoblasts that were weakly adherent to the plastic flask. Harvested cells were pelleted and washed twice in ice cold phosphate-buffered saline (PBS; 20 mM Na2 HPO4 and 150 mM NaCl, pH 7.2). The pelleted cells were then resuspended in ETD buffer (1 mM EDTA, 10 mM Tris-HCl, 5 mM dithiothreitol, pH 7.4) containing 1 mM phenylmethylsulfonylflouride and homogenized by Polytron on ice in five 15-second bursts. Nuclei with associated nuclear steroid receptor proteins, were pelleted at 4,000×g for 30 minutes at 4° C. The post-nuclear supernatant of this spin was then subjected to high-speed centrifugation at 100,000×g for 1 hour at 4° C. The resulting "100,000×g supernatant" was either aliquoted and stored at […] for further study, used in competitive ligand binding analyses, or subjected to further purification as described below in Example II.
Ligand Binding Analyses. The ability of the unfractionated 100,000×g supernatant extracts of B95-8 cells and individual column […] of increasing concentrations of radioinert compounds (see Table I) was performed by competitive protein binding assay as previously described in Gacad et al. Bone Min. Res. 8:27-35 (1993).
[…] […] […] […] The binding assay conditions were the same as those stated above except that specific binding was determined in ETD-0.3 M Na2 HPO4 buffer (pH 6.8).
On the technique in general: Displacement assays read how much labelled ligand stays bound in the presence of the test substance.

Sequence of IDBP (Q9N1U2 whole entry): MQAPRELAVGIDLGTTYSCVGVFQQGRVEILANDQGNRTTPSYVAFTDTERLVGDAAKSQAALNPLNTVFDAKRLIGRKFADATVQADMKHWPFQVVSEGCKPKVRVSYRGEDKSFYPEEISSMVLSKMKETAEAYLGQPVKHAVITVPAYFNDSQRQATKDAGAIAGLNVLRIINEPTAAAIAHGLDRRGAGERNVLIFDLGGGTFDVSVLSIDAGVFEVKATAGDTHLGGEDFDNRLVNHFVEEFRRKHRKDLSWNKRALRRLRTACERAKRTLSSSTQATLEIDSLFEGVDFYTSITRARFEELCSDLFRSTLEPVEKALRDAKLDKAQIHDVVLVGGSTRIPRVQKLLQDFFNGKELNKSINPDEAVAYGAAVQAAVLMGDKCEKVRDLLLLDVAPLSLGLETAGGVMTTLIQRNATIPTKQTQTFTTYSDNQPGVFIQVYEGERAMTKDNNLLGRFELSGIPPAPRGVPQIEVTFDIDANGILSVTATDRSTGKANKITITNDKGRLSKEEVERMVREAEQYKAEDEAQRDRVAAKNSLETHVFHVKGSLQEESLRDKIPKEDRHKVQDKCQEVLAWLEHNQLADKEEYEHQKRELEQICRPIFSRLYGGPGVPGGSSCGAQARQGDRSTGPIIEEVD

For `C=C1CC[C@H](O)C/C1=C/C=C1\CCC[C@]2(C)[C@@H]([C@H](C)CCC(O)C(C)(C)O)CC[C@@H]12` (stereo partly drawn) [24,25-(OH)2D3], the “ability to competitively displace [3H]25-OHD3 binding (FIG. 1A)” value (from here on “ability to competitively displace”) is “roughly equivalent in their ability to competitively inhibit” and the “RBI (Relative Binding Index)” value came to 72. For the compound `CC(=O)[C@H]1CC[C@H]2[C@@H]3CC=C4C[C@@H](O)CC[C@]4(C)[C@H]3CC[C@]12C` [Pregnenolone], the “RBI (Relative Binding Index)” value came to 0. On to `C=C1/C(=C\C=C2/CCC[C@]3(C)[C@@H]([C@H](C)/C=C/C=C/C(O)(CC)CC)CC[C@@H]23)C[C@@H](O)C[C@@H]1O` [EB1089], for which the “RBI (Relative Binding Index)” value worked out at 0; the “binding / displacement of [3H]25-OHD3 by vitamin D2 metabolites and synthetic analogues (FIG. 2B)” value is “none of the C-1-hydroxylated nonhypercalcemic analogues MC903, EB1089 and KH1060 (FIG. 2A) were able to displace [^3 H]25-OHD3 binding”. With `C=C1/C(=C\C=C2/CCC[C@]3(C)[C@@H]([C@H](C)CCCC(C)C)CC[C@@H]23)C[C@@H](O)C[C@@H]1O` [1-OHD3], the “ability to competitively displace” value is “incapable of displacing [^3 H]25-OHD3” and the “RBI (Relative Binding Index)” value was 0.

`CCCCC[C@H](O)/C=C/[C@@H]1[C@@H](C/C=C\CCCC(=O)O)[C@@H](O)C[C@H]1O` [PGF2alpha]: the “RBI (Relative Binding Index)” value is 0. Regarding `C=C1/C(=C\C=C2/CCC[C@]3(C)[C@@H]([C@@H](C)OCCCC(O)(CC)CC)CC[C@@H]23)C[C@@H](O)C[C@@H]1O` [KH1060], the “RBI (Relative Binding Index)” value is on record as 0; the “binding / displacement of [3H]25-OHD3 by vitamin D2 metabolites and synthetic analogues (FIG. 2B)” value was “none of the C-1-hydroxylated nonhypercalcemic analogues MC903, EB1089 and KH1060 (FIG. 2A) were able to displace [^3 H]25-OHD3 binding”. On to `C[C@]12CCC(=O)C[C@@H]1CC[C@@H]1[C@@H]2CC[C@]2(C)[C@@H](O)CC[C@@H]12` [5-Dihydroxytestosterone], for which the “competition of non-vitamin D steroids and bioactive lipids with 25-OHD3 for binding” value is “none of the six steroid precursor molecules, glucocorticoids, mineralocorticoids, or the major intracellular metabolite of testosterone, 5-dihydrotestosterone, were capable ligands”; the “RBI (Relative Binding Index)” value came to 0. Consider `C[C@]12CCC(=O)C=C1CC[C@@H]1[C@@H]2[C@@H](O)C[C@@]2(C)[C@H]1CC[C@]2(O)C(=O)CO` [Hydrocortisone], for which the “RBI (Relative Binding Index)” value is 0. `C=C1/C(=C\C=C2/CCC[C@]3(C)[C@@H]([C@H](C)/C=C/[C@@H](O)C4CC4)CC[C@@H]23)C[C@@H](O)C[C@@H]1O` [Calcipotriol (MC903), Calcipotriol]: the “RBI (Relative Binding Index)” value turned out to be 0; the “binding / displacement of [3H]25-OHD3 by vitamin D2 metabolites and synthetic analogues (FIG. 2B)” value is “none of the C-1-hydroxylated nonhypercalcemic analogues MC903, EB1089 and KH1060 (FIG. 2A) were able to displace [^3 H]25-OHD3 binding”. On to `CC1=C(/C=C/C(C)=C/C=C/C(C)=C/C(=O)O)C(C)(C)CCC1` [All-trans Retinoic acid], for which the “RBI (Relative Binding Index)” value is recorded as 0. Same read-out and setting: as for `CC(C)CCC[C@@H](C)[C@H]1CC[C@H]2[C@@H]3CC=C4C[C@@H](O)CC[C@]4(C)[C@H]3CC[C@]12C` [Cholesterol], the figure is 0; as for `C[C@]12CC[C@H](OS(=O)(=O)O)CC1=CC[C@@H]1[C@@H]2CC[C@]2(C)C(=O)CC[C@@H]12` [DHEAS], 0. `C[C@]12CCC(=O)C=C1CC[C@@H]1[C@@H]2CC[C@]2(C)C(=O)CC[C@@H]12` [Androstendione]: the “RBI (Relative Binding Index)” value was determined as 0. On the same count and under the same terms, as for `CC(C)CCC[C@@H](C)[C@H]1CC[C@H]2C3=CC=C4C[C@@H](O)CC[C@]4(C)[C@H]3CC[C@]12C` [7-Dehydrocholesterol], the figure is 0.

Consider `C[C@]12CC[C@@H]3c4ccc(O)cc4CC[C@H]3[C@@H]1CC[C@@H]2O` [17β-Estradiol], for which the “competition of non-vitamin D steroids and bioactive lipids with 25-OHD3 for binding” value is “competitively displaces [^3 H]25-OHD3”; the “RBI (Relative Binding Index)” value is given as 33. Take `CC1=C(/C=C/C(C)=C\C=C\C(C)=C\C(=O)O)C(C)(C)CCC1` [9-cis Retinoic acid]: the “RBI (Relative Binding Index)” value is 0. In the case of `C[C@]12CC[C@H](O)CC1=CC[C@@H]1[C@@H]2CC[C@]2(C)C(=O)CC[C@@H]12` [DHEA], the “RBI (Relative Binding Index)” value came out at 0.

Take `CC(=O)[C@H]1CC[C@H]2[C@@H]3CCC4=CC(=O)CC[C@]4(C)[C@H]3CC[C@]12C` [Progesterone]: the “competition of non-vitamin D steroids and bioactive lipids with 25-OHD3 for binding” value is “competitively displaces [^3 H]25-OHD3”; the “RBI (Relative Binding Index)” value came out at 19. Regarding `C=C1/C(=C\C=C2/CCC[C@]3(C)[C@@H]([C@H](C)CCC(O)C(C)(C)O)CC[C@@H]23)C[C@@H](O)CC1O` (stereo partly drawn) [1,24,25-(OH)3D3], the “ability to competitively displace” value is recorded as “significantly decreased effective competitive binding” and the “RBI (Relative Binding Index)” value came out at 36. In addition, the “displacement of 25-OHD3” value (competitor at 10^-7 M, 0.1 µM) is reported as 20%. Moreover, the “displacement of 25-OHD3 at lower concentrations” value (competitor concentrations below 10^-7 M) is “no apparent displacement at lower concentrations”. For the compound Androstendiol, the “RBI (Relative Binding Index)” value amounted to 0. For `C=C1CC[C@H](O)C/C1=C/C=C1\CCC[C@]2(C)[C@@H]([C@H](C)CCCC(C)(O)CO)CC[C@@H]12` (stereo partly drawn) [25,26-(OH)2D3], the “ability to competitively displace” value is listed as “roughly equivalent in their ability to competitively inhibit” and the “RBI (Relative Binding Index)” value came out at 70. For `CCCCC/C=C\C/C=C\C/C=C\C/C=C\CCCC(=O)O` [Arachidonic acid], the “RBI (Relative Binding Index)” value is on record as 0.

In the case of `C[C@]12CCC(=O)C=C1CC[C@@H]1[C@@H]2[C@@H](O)C[C@]2(C=O)[C@@H](C(=O)CO)CC[C@@H]12` [Aldosterone], the “RBI (Relative Binding Index)” value is reported as 0. With `CC#C[C@]1(O)CC[C@H]2[C@@H]3CCC4=CC(=O)CCC4=C3[C@@H](c3ccc(N(C)C)cc3)C[C@@]21C` [RU486], the “RBI (Relative Binding Index)” value is on record as 0. On the same count and under the same terms, the same measure for `C[C@]12C[C@H](O)[C@H]3[C@@H](CCC4=CC(=O)CC[C@@]43C)[C@@H]1CC[C@@H]2C(=O)CO` [Corticosterone (B), Corticosterone]: 0. The same measure, in the same setting: the same measure for `C[C@@H]1C[C@H]2[C@@H]3CCC4=CC(=O)C=C[C@]4(C)[C@@]3(F)[C@@H](O)C[C@]2(C)[C@@]1(O)C(=O)CO` [Dexamethasone]: 0.

For `C=C1CC[C@H](O)C/C1=C/C=C1\CCC[C@]2(C)[C@@H]([C@H](C)/C=C/[C@H](C)C(C)(C)O)CC[C@@H]12` [25-OHD2, 25-hydroxy vitamin D2], the “RBI (Relative Binding Index)” value is 100; the “binding / displacement of [3H]25-OHD3 by vitamin D2 metabolites and synthetic analogues (FIG. 2B)” value was “bound in unfractionated extracts equivalently to 25-OHD3 and 1,25-(OH)^2 D3”. On to `C[C@]12CCC(=O)C=C1CC[C@@H]1[C@@H]2C(=O)C[C@@]2(C)[C@H]1CC[C@]2(O)C(=O)CO` [Cortisone], for which the “RBI (Relative Binding Index)” value is 0. Regarding `C[C@]12CC[C@H]3[C@@H](CCC4=CC(=O)CC[C@@]43C)[C@@H]1CC[C@@H]2O` [Testosterone], the “competition of non-vitamin D steroids and bioactive lipids with 25-OHD3 for binding” value is “competitively displaces [^3 H]25-OHD3”; the “RBI (Relative Binding Index)” value amounted to 30.

Consider `C[C@]12CC[C@H]3[C@@H](CCC4=CC(=O)CC[C@@]43C)[C@@H]1CC[C@@H]2C(=O)CO` [Deoxycorticosterone (DOC), Deoxycorticosterone], for which the “RBI (Relative Binding Index)” value amounted to 0. As to `C[C@H](CCCC(C)(C)O)[C@H]1CC[C@H]2[C@@H]3CC=C4C[C@@H](O)CC[C@]4(C)[C@H]3CC[C@]12C` [25-Hydroxycholesterol], the “competition of non-vitamin D steroids and bioactive lipids with 25-OHD3 for binding” value is recorded as “none of these evaluated compounds were able to compete with 25-OHD3 for binding”; the “RBI (Relative Binding Index)” value is given as 0. For `C=C1CC[C@H](O)C/C1=C/C=C1\CCC[C@]2(C)[C@@H]([C@H](C)/C=C/[C@H](C)C(C)C)CC[C@@H]12` [Vitamin D2, ergocalciferol], the “RBI (Relative Binding Index)” value was determined as 0. Consider `C=C1CC[C@H](O)C/C1=C/C=C1\CCC[C@]2(C)[C@@H]([C@H](C)CCCC(C)C)CC[C@@H]12` [Vltamin D3, cholecalciferol], for which the “ability to competitively displace” value was “ineffective as a competitive ligand” and the “RBI (Relative Binding Index)” value is recorded as 0. For `CC(C)[C@@H](C)/C=C/[C@@H](C)[C@H]1CC[C@H]2/C(=C/C=C3\C[C@@H](O)CC[C@@H]3C)CCC[C@]12C` [Dihydrotachysterol] the same measures were “incapable of displacing [^3 H]25-OHD3” and 0.
